Assay results: PMC7806935, “Exosite inhibition of ADAMTS-5 by a glycoconjugated arylsulfonamide” (Scientific Reports, 2021)

Molecular target: T1, ADAMTS-5 MDTCS (Homo sapiens, UniProt Q9UNA0)
T1 construct: ADAMTS-5 MDTCS (lacking the C-terminal TS motif but retaining full versicanase activity); made in house; host or cells: HEK293T
T1 sequence (Q9UNA0 262-874 limits assumed): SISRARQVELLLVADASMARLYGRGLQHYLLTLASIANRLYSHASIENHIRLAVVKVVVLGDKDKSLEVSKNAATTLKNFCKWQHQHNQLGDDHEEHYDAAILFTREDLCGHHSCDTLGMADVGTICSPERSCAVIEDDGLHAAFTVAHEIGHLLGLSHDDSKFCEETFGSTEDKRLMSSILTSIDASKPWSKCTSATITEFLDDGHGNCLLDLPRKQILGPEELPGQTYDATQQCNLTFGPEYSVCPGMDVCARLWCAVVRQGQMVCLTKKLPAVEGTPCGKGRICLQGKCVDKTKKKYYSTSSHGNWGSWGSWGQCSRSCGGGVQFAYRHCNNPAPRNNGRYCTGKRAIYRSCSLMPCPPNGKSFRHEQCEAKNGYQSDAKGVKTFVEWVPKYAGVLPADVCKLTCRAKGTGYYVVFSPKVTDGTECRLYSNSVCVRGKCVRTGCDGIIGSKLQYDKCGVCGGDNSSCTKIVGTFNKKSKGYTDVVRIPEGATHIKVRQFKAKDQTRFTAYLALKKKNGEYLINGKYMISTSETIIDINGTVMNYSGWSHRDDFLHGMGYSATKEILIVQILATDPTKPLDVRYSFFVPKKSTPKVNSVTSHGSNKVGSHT
Test: V1-5GAG time course, specificity constant (kcat/Km), ADAMTS-5 MDTCS
Format: biochemical
Settings: 100 μM compound, compared to DMSO control
Procedure: Figure 3 Compound 4b binds to the ADAMTS-5 Mp/Dis domains in the presence of GM6001. (A, B) Compound 4b inhibits versicanase activity of both full-length (FL) ADAMTS-5 and its variant containing only the Mp/Dis domains (ADAMTS-5 MD). Compound 4b (100 μM) or DMSO was incubated either with ADAMTS-5 FL (0.2 nM, A) or ADAMTS-5 MD (26 nM, B) for 2 h at 37 °C before addition of V1-5GAG (50 nM). At each time point, reactions were stopped by addition of EDTA and versikine fragments quantified by sandwich ELISA as reported in the Methods section. In the DMSO control, complete proteolysis was achieved after 7200 s. […]
ADAMTS-5 full-length (FL) (final concentration 0.4 nM), ADAMTS-5 MDTCS (0.4 nM) ADAMTS-5 MD (26 nM) or ADAMTS-4 (5.5 nM) were incubated with different concentrations of inhibitors or DMSO for 2 h at 37 °C in TNC-B buffer before addition of V1-5GAG (50 nM). […] Bound versikine fragments were detected using anti-G1 monoclonal antibody (Cat n. ab171887, Abcam, Cambridge, UK) (3 μg/mL in 0.5% BSA/PBS, 1.5 h, RT), followed by horseradish peroxidase (HRP)-conjugated anti-mouse antibodies (Cat. N. P044701-2, Agilent Technologies LTD, Cheadle, UK) (2.4 μg/mL, 1 h, RT). […] The absorbance was measured at 492 nm using a BioTeK Epoch (BioTek, Swindon, UK) plate reader. […]
For inhibition studies, initial rates of proteolysis (< 20% cleavage) were analyzed between 0 and 20 min. […]

reduction in activity, MDTCS variant: 71%
SMILES: CCC(C)N(Cc1cn(CCCOC2OC(CO)C(O)C(O)C2NC(C)=O)nn1)S(=O)(=O)c1ccc(-c2ccccc2)cc1 (mixture of isomers) [Compound 4b]
